# Measured values: PMC5638327, “Comparison of bioavailability and antiplatelet action of ticagrelor in patients with ST-elevation myocardial infarction and non-ST-elevation myocardial infarction: A prospective, observational, single-centre study” (PLoS ONE, 2017)
# What was measured:
# [1] = Pharmacokinetic assessment: plasma concentrations by liquid chromatography tandem mass spectrometry after ticagrelor loading dose; assay type: in vivo, human (patients with myocardial infarction); conditions: for AUC(0–6) / AUC(0–12): oral 180 mg ticagrelor LD, plasma, median [interquartile range]
# Procedure: Consecutive STEMI and NSTEMI patients admitted to the study site (Cardiology Department, Dr. A. Jurasz University Hospital, Bydgoszcz, Poland) were screened for eligibility. After admission to the study centre, confirmation of the initial diagnosis of STEMI or NSTEMI, and provision of a written informed consent to participate in the trial, all study participants received an oral 300 mg LD of plain aspirin (Polpharma SA, Starogard Gdański, Poland) and 180 mg LD ticagrelor in integral tablets with 250 mL tap water. Subsequently, within 15 minutes of ticagrelor LD, all patients underwent coronary angiography followed by PCI as required. During the periprocedural period, all study participants received unfractionated heparin in body weight adjusted dose according to the European Society of Cardiology (ESC) recommendations. Plasma concentrations of ticagrelor and its active metabolite, as well as their antiplatelet effect, were evaluated according to the sampling schedule employed at our centre in previous PK/PD study (pre-treatment, 0.5 h, 1 h, 2 h, 3 h, 4 h, 6 h and 12 h post ticagrelor LD).
# Blood samples for PK/PD evaluation were obtained from an 18-gauge cannula inserted into one of the forearm veins. The first 5 mL blood was discarded to avoid spontaneous platelet activation. In each patient specimens were collected at the eight pre-defined time. Detailed description of blood sample processing has been published in the study protocol (S1 File).
# Ticagrelor and AR-C124910XX plasma concentrations were analyzed with liquid chromatography coupled with tandem mass spectrometry, using a validated method. Lower limits of quantification were 4.69 ng/mL for both ticagrelor and AR-C124910XX.
# Statistical calculations were performed using the Statistica 12.5 package (StatSoft, Tulsa, OK, USA). Pharmacokinetic calculations and plots were made using the Matlab R2014 software (Mathworks, Natick, MA, USA); trapezoidal rule was applied to calculate AUC. Data for pharmacokinetic features of ticagrelor and AR-C124910XX, pharmacodynamic outcome variables, creatinine, glomerular filtration rate and left ventricle ejection fraction were presented as medians and interquartile ranges. Data for heart rate, systolic and diastolic blood pressure, age and body mass index were presented as means with standard deviations. […] Continuous variables were compared between both study groups with the Student’s t-test and Mann-Whitney U test, depending on the presence or absence of the normal distribution (as assessed by the Shapiro-Wilk test). Comparisons between categorical variables were performed by the chi-square test, with Yates's correction if necessary, or using Fisher's exact test. […]
# Blood samples for pharmacokinetic and phar- infarction; PCI, percutaneous coronary intervention; PD, macodynamic assessment will be drawn at eight prede- pharmacodynamics; PK, pharmacokinetics; STEMI, ﬁned time points according to the blood sampling ST-elevation myocardial infarction. schedule already used at our site in a previous study
# ( pretreatment baseline, 30 min, 1, 2, 3, 4, 6 andsamples will be stored at temperature below −60°C until 12 hours post-ticagrelor LD— as shown in ﬁgure 1). 31 analysed.
# All enrolled patients with ﬁnally unconﬁrmed initial Venous blood for the assessment of pharmacodynam-diagnosis of AMI will be excluded from the primar y ana- ics with the vasodilator-stimulated phosphoprotein lysis. Patients qualiﬁed for urgent coronar y arter y bypass (VASP) assay and multiple electrode aggregometr y surgery within the blood sampling period also will not (MEA) will be collected into trisodium citrate and be included in the analysis. All study participants not hirudin vacuum test tubes, respectively. The ﬁrst 3–5mL receiving PCI will be reported. of blood will be discarded to avoid spontaneous platelet Study population activation. The pharmacodynamic analysis will be per- […]
# [2] = set-up: method as in PMID 20551239; conditions: blood plasma, after ticagrelor; cited from earlier work
# platelet reactivity [3] = tested on: platelet reactivity; set-up: method as in PMID 27885888; conditions: STEMI patients, first hour after ticagrelor LD, parenteral; cited from earlier work
# platelet reactivity [4] = tested on: platelet reactivity; set-up: method as in PMID 27366874; conditions: STEMI patients on prasugrel with concomitant morphine, intravenous; cited from earlier work
molecule,measurement,setting,value
CCCSc1nc(N[C@@H]2C[C@H]2c2ccc(F)c(F)c2)c2nnn([C@@H]3C[C@H](O)[C@@H](O)[C@H]3O)c2n1 [AR-C124910XX],AUC(0–6),[1]; NSTEMI patients (n = 24),712 [346–1616] ng*h/mL
same,AUC(0–12),[1]; NSTEMI patients,1523 [1005–2867] ng*h/mL
same,AUC(0–6),[1]; STEMI patients (n = 49),473 [0–924] ng*h/mL
same,AUC(0–12),[1]; STEMI patients,1383 [766–2182] ng*h/mL
same,lower AUC(0–6) in STEMI than in NSTEMI patients,[1]; first 6 h after 180 mg ticagrelor LD,34%
same,plasma concentration relative to the main compound,[2],30–40%
CSCCNc1nc(SCCC(F)(F)F)nc2c1ncn2[C@@H]1O[C@H](COP(=O)(O)OP(=O)(O)C(Cl)(Cl)P(=O)(O)O)[C@@H](O)[C@H]1O [cangrelor],effect on platelet reactivity and HPR,platelet reactivity [3],markedly reduced platelet reactivity and basically eliminated HPR phenomenon
"abciximab (antibody, chains of the INN, looked up, V domains shown, Fab) VH: EVQLQQSGTVLARPGASVKMSCEASGYTFTNYWMHWVKQRPGQGLEWIGAIYPGNSDTSYIQKFKGKAKLTAVTSTTSVYMELSSLTNEDSAVYYCTLYDGYYVFAYWGQGTLVTVSA VL: EIVLTQSPVTLSVTPGDSVSLSCRASRDISNNLHWFQQTSHESPRLLIKYASQSMSGIPSRFSGSGSGTDFTLSINSVETEDFGMYFCQQTNSWPYTFGGGTKLEIK",platelet inhibition,platelet reactivity [4],immediate and efficient platelet inhibition
